The source of these data is paper PMC7374097, “UGT2B17 modifies drug response in chronic lymphocytic leukaemia” (British Journal of Cancer, 2020).

The IC50 is the point on the concentration scale where inhibition reaches its midpoint. By Km is commonly meant the substrate concentration at which the rate is half of its maximum. A word on the Ki: it is the dissociation constant of the complex between target and ligand, obtained from inhibition or displacement.

Where two headings read alike, the source gives them in different places. A value given as a limit tells only on which side of the number the result lay.

In series [1] the test system is JVM2 cells. The experiment in a line: MTS cell viability assay, JVM2 cells (control or overexpressing UGT2B17). In kind it is cell-based, human. The note with it: for IC50: Homo sapiens, JVM-2, 72 h; for Fold over control: JVM2, IC50 2B17 / CTRL. The method, then:
(§1) Cells were plated at 1 × 10^4 cells/well (MEC1) or at 5 × 10^4 cells/well (JVM2) in 96-well U-bottom tissue culture plates (BD Bioscience, Mississauga, ON, Canada). Drugs were added at time of plating at concentrations ranging from 1 nM to 100 µM (7–9 concentrations per drug), depending on the drug and based on cell viability. MTS cell viability assays (Aqueous One assay, Promega, Madison, WI, USA) were conducted 72 h after treatment initiation according to the manufacturer’s instructions. […] Control cells were treated with corresponding vehicle concentration. […] IC50 were calculated by fitting variable slope non-linear curves to normalised response data from drug treatments using GraphPad Prism v5 (GraphPad Software Inc., La Jolla, CA, USA). Assays were replicated at least three times in triplicates.

Series [2] has as its system MEC1 cells. The experiment in a line: MTS cell viability assay, MEC1 cells (control or overexpressing UGT2B17). In kind it is cell-based, human. The note with it: for IC50: Homo sapiens, 72 h; for Fold over control: MEC1, IC50 2B17 / CTRL. The method, then:
as §1

For series [3], the system named is human liver microsomes. The experiment in a line: Glucuronidation assay with human liver microsomes. The note with it: for Glucuronide (G) products formed: pooled human liver microsomes, MS. The method, then:
(§2) Electrospray ionisation was performed in the positive ion mode.
On the technique in general: Liver microsomes are a subcellular fraction often used to study metabolism.

Series [4] relates to individual human UGT isoforms. The experiment in a line: Screening of tissues and individual recombinant UGT1A (n = 8) and UGT2B (n = 6) enzymes by quantitative MS. The note with it: liver, kidney, intestine and recombinant UGTs. As to the method:
as §2

The subject of the next series is UGT2B17 expression. The experiment in a line: UGT2B17 mRNA by RT-qPCR in drug-treated cell models. Format: cell-based, human. The note with it: MEC1, JVM2 and EHEB cells, drug treatment; P < 0.01.
The test system of series [5] is fludarabine glucuronidation. The experiment in a line: Fludarabine glucuronidation in drug-treated cell models. In kind it is cell-based, human. As to the method:
as §2

Series [6] deals with MEC1 cells. The note with it: MEC1, Annexin V/PI, 72 h. As to the method:
(§3) Cells plated in 96-well plates at 2 × 10^4 cells/well (MEC1) or 3 × 10^4 cells/well (JVM2) were exposed to varying drug concentrations as above for 72 h. Cells were washed, labelled for 12 min with Annexin V (1:200) and PI (2 µg/ml) in Annexin V binding buffer, then immediately analysed by flow cytometry on a FACSCelesta equipped with a high throughput sampler (BD Bioscience). Annexin V labelling assays were replicated at least twice in duplicates.
(§4) MEC1 (a, c, e) and JVM2 (b, d, f) cells expressing low or high UGT2B17 levels were exposed to
(§5) increasing drug concentrations. Cells were stained with Annexin V (AnV) and propidium iodide (PI) 72
(§6) hours after treatment initiation. The AV-/PI- cells constituted the viable cell population.

In series [7] the test system is JVM2 cells. The note with it: JVM2, Annexin V/PI, 72 h. As to the method:
as §3, §4, §5, §6

Series [8] can be described thus: Glucuronidation assay with human liver microsomes. The note with it: human, human liver microsomes, pH 7.5. The method, then: as §2
The next series deals with T1, UGT1A4 (Homo sapiens, UniProt P22310).
T1 sequence (P22310 29-534): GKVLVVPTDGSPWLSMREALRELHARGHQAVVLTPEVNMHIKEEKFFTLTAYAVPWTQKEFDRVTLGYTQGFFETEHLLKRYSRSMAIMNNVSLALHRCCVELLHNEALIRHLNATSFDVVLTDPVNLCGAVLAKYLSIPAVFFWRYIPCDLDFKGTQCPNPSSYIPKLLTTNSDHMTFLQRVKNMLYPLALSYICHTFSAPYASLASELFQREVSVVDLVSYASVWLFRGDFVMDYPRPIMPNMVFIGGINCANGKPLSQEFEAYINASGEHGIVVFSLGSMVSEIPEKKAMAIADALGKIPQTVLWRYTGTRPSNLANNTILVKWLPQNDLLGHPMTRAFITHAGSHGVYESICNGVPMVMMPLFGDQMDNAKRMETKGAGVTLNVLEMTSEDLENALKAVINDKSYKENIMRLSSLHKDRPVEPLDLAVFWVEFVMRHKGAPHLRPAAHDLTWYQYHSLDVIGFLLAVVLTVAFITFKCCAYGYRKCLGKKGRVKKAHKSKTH
The experiment in a line: Glucuronidation assay with UGT1A4 supersomes. The note with it: for Ki: UGT1A4 inhibitory constant Ki, UGT1A4, inhibitor hecogenin.

Series [9] addresses T2, human liver microsomes (Homo sapiens, UniProt P22310).
T2 sequence (P22310 29-534): T1 sequence (P22310 29-534)
The experiment in a line: Glucuronidation assay with human liver microsomes. The note with it: UGT1A4 inhibitory constant Ki, Liver, inhibitor hecogenin. The method, then: as §2

Substrate in series [10]: Nc1nc(F)nc2c1ncn2[C@@H]1O[C@H](CO)[C@@H](O)[C@@H]1O
The experiment in a line: cells, lysate or membranes named. The note with it: predominant drug-G, pH 7.5, 37.0 °C.

Where [11] appears, read: JVM2 cells overexpressing UGT2B17, MTS, read-out: 2B17 IC50.
Setting [12] is: JVM2 control cells, MTS, read-out: CTRL IC50.
Setting [13] is: MEC1 cells overexpressing UGT2B17, MTS, read-out: 2B17 IC50.
The mark [14] stands for this setting: MEC1 control cells, MTS, read-out: CTRL IC50.

Turning to `Cn1c(CCCC(=O)O)nc2cc(N(CCCl)CCCl)ccc21` [Bendamustine, bendamustine], the IC50 in the series with JVM2 cells [1] (setting [11]) worked out at 62.8 µM; in the series on JVM2 cells [1] (setting [12]), 54.2 µM; with MEC1 cells [2] (setting [13]), 76 µM; with MEC1 cells [2] (setting [14]), 60.1 µM. Also, the results for the Fold over control in the series on JVM2 cells [1] and with MEC1 cells [2] were 1.16 and 1.27, respectively. Moreover, the “Glucuronide (G) products formed” value in the series on human liver microsomes [3] was “at least one G product”.

For the molecule `O=C(O)CCCc1ccc(N(CCCl)CCCl)cc1` [Chlorambucil, chlorambucil], the IC50 in the series with JVM2 cells [1] (setting [11]) amounted to 8.64 µM; with JVM2 cells [1] (setting [12]) it was 10.4 µM; in the series on MEC1 cells [2] (setting [13]), 12.3 µM; with MEC1 cells [2] (setting [14]), 7.99 µM. In addition, the figures for the Fold over control in the series with JVM2 cells [1] and in the series with MEC1 cells [2] were 0.83 and 1.55, respectively. Moreover, the “UGT enzyme(s) involved in glucuronidation of the drug” value (shortened to “UGT enzyme(s) involved”) in series [4] was “UGT2B17 plays a role in the inactivation”. Further, the “Glucuronide (G) products formed” value in the series with human liver microsomes [3] is given as “at least one G product”.

Take `Nc1nc(F)nc2c1ncn2[C@@H]1O[C@H](CO)[C@@H](O)[C@@H]1O` [Fludarabine, fludarabine]: the “Induction of UGT2B17 expression” value with UGT2B17 expression is “significantly induced”. Further, the “Fludarabine glucuronidation following drug treatment” value in series [5] is recorded as “increased”. The IC50 with JVM2 cells [1] (setting [11]) was found to be 15.1 µM; with JVM2 cells [1] (setting [12]) it was 9.08 µM; in the series on MEC1 cells [2] (setting [13]), 58.8 µM; in the series with MEC1 cells [2] (setting [14]) it was 29.3 µM. For the same molecule, the Fold over control with JVM2 cells [1] worked out at 1.66; with MEC1 cells [2] it was 2.01. In addition, the “Concentration at which cytotoxicity was observed” value in the series on MEC1 cells [6] is more than 40 µM. Further, the “Cytotoxicity at clinically relevant concentrations” value in the series with MEC1 cells [6] and with JVM2 cells [7] was “no cytotoxicity” throughout. Moreover, the “Concentration at which cytotoxic” value in the series with JVM2 cells [7] is more than 5 µM. Moreover, in [4], the “UGT enzyme(s) involved” value was “UGT2B17 and UGT1A4 were the main conjugating enzymes”. In addition, the “Velocity Vmax” value in the series on human liver microsomes [3] (Liver, predominant drug-G, velocity at highest substrate concentration) was determined as 0.12 pmol/min/mg protein. Also, the “Glucuronide (G) products formed” value in the series with human liver microsomes [3] was “two glucuronides”. The Km at 6 h in [8] turned out to be 878 µM.

With `C[C@@H]1CC[C@@]2(OC1)O[C@H]1C[C@H]3[C@@H]4CC[C@H]5C[C@@H](O)CC[C@]5(C)[C@H]4CC(=O)[C@]3(C)[C@H]1[C@@H]2C` [Hecogenin, hecogenin], the “Formation of ibrutinib and idelalisib G1 and G2 abolished” value on UGT1A4 (UGT1A4 and livers, in the presence of hecogenin) is recorded as approximately 90%. The Ki worked out at 2.8 µM on UGT1A4 (substrate ibrutinib), 0.6 µM on UGT1A4 (substrate idelalisib), 5.8 µM on human liver microsomes [9] (substrate ibrutinib) and 0.9 µM on human liver microsomes [9] (substrate idelalisib).

For the molecule `C=CC(=O)N1CCC[C@@H](n2nc(-c3ccc(Oc4ccccc4)cc3)c3c(N)ncnc32)C1` [Ibrutinib, ibrutinib], the IC50 in the series on JVM2 cells [1] (setting [11]) is 8.95 µM; in the series on JVM2 cells [1] (setting [12]) it was 3.64 µM; with MEC1 cells [2] (setting [13]), 4.13 µM; with MEC1 cells [2] (setting [14]), 0.99 µM.

In the case of `CC[C@H](Nc1ncnc2[nH]cnc12)c1nc2cccc(F)c2c(=O)n1-c1ccccc1` [Idelalisib, idelalisib], in [5], the “Fludarabine glucuronidation following drug treatment” value is “increased”. For the same molecule, the IC50 worked out at 2.95 µM with JVM2 cells [1] (setting [11]), 1.79 µM with JVM2 cells [1] (setting [12]), 7.4 µM in the series on MEC1 cells [2] (setting [13]) and 1.73 µM in the series on MEC1 cells [2] (setting [14]). Besides, the “Cytotoxicity at clinically relevant concentrations” value was “low and no cytotoxicity” with MEC1 cells [6]; “low and no cytotoxicity” with JVM2 cells [7].

Consider `CC1(C)CCC(CN2CCN(c3ccc(C(=O)NS(=O)(=O)c4ccc(NCC5CCOCC5)c([N+](=O)[O-])c4)c(Oc4cnc5[nH]ccc5c4)c3)CC2)=C(c2ccc(Cl)cc2)C1` [Venetoclax, venetoclax], for which the IC50 in the series on JVM2 cells [1] (setting [11]) turned out to be 2.94 µM; with JVM2 cells [1] (setting [12]), 4.06 µM; in the series with MEC1 cells [2] (setting [13]), 4.16 µM; in the series on MEC1 cells [2] (setting [14]) it was 2.22 µM. In addition, the values for the Fold over control in the series on JVM2 cells [1] and in the series on MEC1 cells [2] were 0.72 and 1.87, respectively. Further, the “Glucuronide (G) products formed” value in the series with human liver microsomes [3] was “at least one G product”.

Take `CC#CC(=O)N1CCC[C@H]1c1nc(-c2ccc(C(=O)Nc3ccccn3)cc2)c2c(N)nccn12` [acalibrutinib, acalabrutinib]: in the series on human liver microsomes [3], the “Glucuronide (G) products formed” value is listed as “at least one G product”.

`CCS(=O)(=O)N1CCN(c2ccc(Nc3ncc(C(N)=O)c(NC4CC4)n3)cc2)CC1` [cerdulatinib]: the “UGT enzyme(s) involved” value in series [4] was “UGT2B17 plays a role in the inactivation”. In addition, in the series on human liver microsomes [3], the “Glucuronide (G) products formed” value is “at least one G product”.

In the case of `C[C@H](Nc1ncnc2[nH]cnc12)c1cc2cccc(Cl)c2c(=O)n1-c1ccccc1` [duvelisib], the “Glucuronide (G) products formed” value with human liver microsomes [3] is “at least one G product”.

B1: UGT2B17 (Homo sapiens) (protein)
chain: GKVLVWPTEYSHWINMKTILEELVQRGHEVIVLTSSASILVNASKSSAIKLEVYPTSLTKNDLEDFFMKMFDRWTYSISKNTFWSYFSQLQELCWEYSDYNIKLCEDAVLNKKLMRKLQESKFDVLLADAVNPCGELLAELLNIPFLYSLRFSVGYTVEKNGGGFLFPPSYVPVVMSELSDQMIFMERIKNMIYMLYFDFWFQAYDLKKWDQFYSEVLGRPTTLFETMGKAEMWLIRTYWDFEFPRPFLPNVDFVGGLHCKPAKPLPKEMEEFVQSSGENGIVVFSLGSMISNMSEESANMIASALAQIPQKVLWRFDGKKPNTLGSNTRLYKWLPQNDLLGHPKTKAFITHGGTNGIYEAIYHGIPMVGIPLFADQHDNIAHMKAKGAALSVDIRTMSSRDLLNALKSVINDPIYKENIMKLSRIHHDQPVKPLDRAVFWIEFVMRHKGAKHLRVAAHNLTWIQYHSLDVIAFLLACVATMIFMITKCCLFCFRKLAKTGKKKKRD
Regarding B1, in [10] (other: UGT2B17), the Km amounted to 949 µM and the Vmax is given as 0.01 pmol/min/mg protein.

B2: UGT1A4 (Homo sapiens) (protein)
chain: T1 sequence (P22310 29-534)
Take B2: in series [10] (other: UGT1A4), the Km was determined as 1020 µM and the Vmax was 0.05 pmol/min/mg protein.
